Assay results taken from ChEMBL document CHEMBL4837223, “Anti-angiogenesis Function of Ononin via Suppressing the MEK/Erk Signaling Pathway” (J Nat Prod, 2021).
Activity calls are given as the source filed them. The calls are words filed in the database; no cut-off is given here.

Key:
HUVEC [1] = experiment: Induction of apoptosis in VEGF-stimulated HUVEC cells assessed as increase in Bax/Bcl2 ratio at 250 nM measured after 48 hrs by western blot analysis; format: functional, cell-based; details: Homo sapiens
HUVEC [2] = experiment: Induction of apoptosis in VEGF-stimulated HUVEC cells assessed as increase in cleaved caspase-9 protein expression at 250 nM measured after 48 hrs by western blot analysis; format: functional, cell-based; details: Homo sapiens
HUVEC [3] = experiment: Induction of apoptosis in VEGF-stimulated HUVEC cells assessed as increase in late apoptotic cells at 250 nM measured after 48 hrs by AnnexinV-FITC/PI staining based flow cytometry; format: functional, cell-based; details: Homo sapiens
HUVEC [4] = experiment: Induction of apoptosis in VEGF-stimulated HUVEC cells assessed as increase in cleaved caspase-3 protein expression at 250 nM measured after 48 hrs by western blot analysis; format: functional, cell-based; details: Homo sapiens
HUVEC [5] = experiment: Induction of apoptosis in VEGF-stimulated HUVEC cells assessed as increase in early apoptotic cells at 250 nM measured after 48 hrs by AnnexinV-FITC/PI staining based flow cytometry; format: functional, cell-based; details: Homo sapiens
HUVEC [6] = experiment: Induction of apoptosis in VEGF-stimulated HUVEC cells assessed as mitochondrial membrane potential alteration at 250 nM measured after 48 hrs by JC-1 staining based flow cytometry; format: functional, cell-based; details: Homo sapiens
HUVEC [7] = experiment: Inhibition of VEGFR2 expression in VEGF-induced HUVEC cells at 5 uM incubated for 48 hrs by DAPI staining based confocal microscopy; format: functional, cell-based; details: Homo sapiens
[8] = target: Mitogen-activated protein kinase; ERK1/ERK2 (Homo sapiens) (UniProt P27361+P28482); experiment: Inhibition of ERK1/2 in VEGF-stimulated HUVEC cells assessed as reduction in phosphorylated […] at 5 uM incubated for 48 hrs by immunoblot analysis; format: cell-based
Chain of Mitogen-activated protein kinase; ERK1/ERK2 (Homo sapiens) (P27361 whole entry, looked up): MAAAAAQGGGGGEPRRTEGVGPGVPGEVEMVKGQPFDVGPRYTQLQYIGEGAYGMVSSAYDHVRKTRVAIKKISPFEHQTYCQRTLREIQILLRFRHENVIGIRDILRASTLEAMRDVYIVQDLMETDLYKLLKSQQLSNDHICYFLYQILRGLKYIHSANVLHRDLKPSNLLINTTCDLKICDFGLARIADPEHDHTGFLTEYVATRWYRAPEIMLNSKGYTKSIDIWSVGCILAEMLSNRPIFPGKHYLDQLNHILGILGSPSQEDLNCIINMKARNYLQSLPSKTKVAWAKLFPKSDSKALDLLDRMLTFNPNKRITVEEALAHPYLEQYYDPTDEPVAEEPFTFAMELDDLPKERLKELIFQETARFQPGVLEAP
Chain of Mitogen-activated protein kinase; ERK1/ERK2 (Homo sapiens) (P28482 whole entry, looked up): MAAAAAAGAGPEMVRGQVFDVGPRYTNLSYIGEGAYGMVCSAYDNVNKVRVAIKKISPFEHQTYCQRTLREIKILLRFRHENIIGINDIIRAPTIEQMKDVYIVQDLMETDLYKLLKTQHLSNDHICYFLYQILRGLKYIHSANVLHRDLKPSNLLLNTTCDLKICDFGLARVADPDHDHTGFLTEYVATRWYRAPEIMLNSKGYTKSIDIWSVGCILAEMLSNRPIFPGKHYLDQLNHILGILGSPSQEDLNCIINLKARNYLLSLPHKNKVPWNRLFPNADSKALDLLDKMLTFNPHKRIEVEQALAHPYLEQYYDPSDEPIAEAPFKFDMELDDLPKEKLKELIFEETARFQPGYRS

HUVEC [9] = experiment: Induction of apoptosis in VEGF-stimulated HUVEC cells at 5 uM measured after 48 hrs by AnnexinV-FITC/PI staining based flow cytometry; format: functional, cell-based; details: Homo sapiens
HUVEC [10] = experiment: Downregulation of HIF-1alpha expression in VEGF-stimulated HUVEC cells at 5 uM measured after 48 hrs by western blot analysis; format: functional, cell-based; details: Homo sapiens
HUVEC [11] = experiment: Antiangiogenic activity against VEGF-induced HUVEC cells assessed as reduction in cell migration at 5 uM measured after 48 hrs by Transwell assay; format: functional, cell-based; details: Homo sapiens
HUVEC [12] = experiment: Antiangiogenic activity against VEGF-induced HUVEC cells assessed as reduction in wound healing at 5 uM measured after 48 hrs by scratch-wound healing assay; format: functional, cell-based; details: Homo sapiens
HUVEC [13] = experiment: Induction of apoptosis in VEGF-stimulated HUVEC cells assessed as increase in Bax/Bcl2 ratio at 5 uM measured after 48 hrs by western blot analysis; format: functional, cell-based; details: Homo sapiens
HUVEC [14] = experiment: Induction of apoptosis in VEGF-stimulated HUVEC cells assessed as increase in cleaved caspase-3 protein expression at 5 uM measured after 48 hrs by western blot analysis; format: functional, cell-based; details: Homo sapiens
HUVEC [15] = experiment: Cytotoxicity against HUVEC cells assessed as reduction in cell vaibility at 5 uM incubated for 48 hrs by MTT assay; format: cell-based; details: human
HUVEC [16] = experiment: Effect on HIF-1beta expression in VEGF-stimulated HUVEC cells at 5 uM measured after 48 hrs by western blot analysis; format: functional, cell-based; details: Homo sapiens
HUVEC [17] = experiment: Induction of apoptosis in VEGF-stimulated HUVEC cells assessed as mitochondrial membrane potential alteration at 5 uM measured after 48 hrs by JC-1 staining based flow cytometry; format: functional, cell-based; details: Homo sapiens
HUVEC [18] = experiment: Downregulation of HIF-1alpha expression in VEGF-stimulated HUVEC cells at 5 uM measured after 48 hrs by DAPI staining based confocal microscopy; format: functional, cell-based; details: Homo sapiens
[19] = target: Dual specificity mitogen-activated protein kinase kinase; MEK1/2 (Homo sapiens) (UniProt P36507+Q02750); experiment: Inhibition of MEK1/2 in VEGF-stimulated HUVEC cells assessed as reduction in phosphorylated MEK1/2 level at 5 uM incubated for 48 hrs by immunoblot analysis; format: cell-based
Chain of Dual specificity mitogen-activated protein kinase kinase; MEK1/2 (Homo sapiens) (P36507 whole entry, looked up): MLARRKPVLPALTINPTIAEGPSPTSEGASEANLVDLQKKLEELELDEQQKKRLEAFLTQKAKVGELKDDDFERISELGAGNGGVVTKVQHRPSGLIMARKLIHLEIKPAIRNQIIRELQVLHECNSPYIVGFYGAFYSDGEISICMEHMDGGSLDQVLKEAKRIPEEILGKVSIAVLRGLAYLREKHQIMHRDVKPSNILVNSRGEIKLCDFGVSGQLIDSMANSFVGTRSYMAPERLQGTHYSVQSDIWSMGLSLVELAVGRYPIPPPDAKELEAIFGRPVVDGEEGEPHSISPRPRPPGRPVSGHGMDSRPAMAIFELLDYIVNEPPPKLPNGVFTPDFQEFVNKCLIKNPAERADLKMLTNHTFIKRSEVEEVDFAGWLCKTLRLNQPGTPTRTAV
Chain of Dual specificity mitogen-activated protein kinase kinase; MEK1/2 (Homo sapiens) (Q02750 whole entry, looked up): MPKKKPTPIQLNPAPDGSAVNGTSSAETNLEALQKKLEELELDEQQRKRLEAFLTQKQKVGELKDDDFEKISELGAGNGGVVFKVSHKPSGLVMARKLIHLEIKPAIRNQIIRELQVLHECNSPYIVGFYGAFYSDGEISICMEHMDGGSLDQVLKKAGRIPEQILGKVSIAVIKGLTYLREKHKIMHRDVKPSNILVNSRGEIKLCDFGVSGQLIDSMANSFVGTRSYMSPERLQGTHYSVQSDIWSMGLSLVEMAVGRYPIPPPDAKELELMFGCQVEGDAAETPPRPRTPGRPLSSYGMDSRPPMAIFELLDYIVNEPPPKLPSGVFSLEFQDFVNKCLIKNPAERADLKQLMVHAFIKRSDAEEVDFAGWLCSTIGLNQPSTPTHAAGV

HUVEC [20] = experiment: Antiangiogenic activity against VEGF-stimulated HUVEC cells assessed as reduction in number of sprouting tubules at 5 uM measured after 48 hrs by Matrigel assay based microscopic analysis; format: functional, cell-based; details: Homo sapiens
HUVEC [21] = experiment: Induction of apoptosis in VEGF-stimulated HUVEC cells assessed as increase in cleaved caspase-9 protein expression at 5 uM measured after 48 hrs by western blot analysis; format: functional, cell-based; details: Homo sapiens
HUVEC [22] = experiment: Induction of apoptosis in VEGF-stimulated HUVEC cells assessed as increase in Cytochrome c protein expression at 5 uM measured after 48 hrs by DAPI staining based confocal microscopy; format: functional, cell-based; details: Homo sapiens

For CN[C@@H]1C[C@H]2O[C@@](C)([C@@H]1OC)n1c3ccccc3c3c4c(c5c6ccccc6n2c5c31)C(=O)NC4, the Activity (HUVEC [1]) was “Active”, the Activity (HUVEC [2]) was “Active” and the Activity (HUVEC [3]) was “Active”. The Activity (HUVEC [4]) was “Active”, the Activity (HUVEC [5]) was “Active” and the Activity (HUVEC [6]) was “Active”.
With COc1ccc(-c2coc3cc(O[C@@H]4O[C@H](CO)[C@@H](O)[C@H](O)[C@H]4O)ccc3c2=O)cc1 [ONONIN] the inhibition (HUVEC [7]) was “Active”, the inhibition [8] was “Active” and the Activity (HUVEC [9]) was “Active”. The inhibition (HUVEC [10]) was “Active”, the Activity (HUVEC [11]) was “Active” and the Activity (HUVEC [12]) was “Active”. The Activity (HUVEC [13]) was “Active”, the Activity (HUVEC [14]) was “Active” and the Activity (HUVEC [15]) was “Non-Toxic”. For the same molecule, the Activity (HUVEC [16]) was “inactive”, the Activity (HUVEC [17]) was “Active” and the inhibition (HUVEC [18]) was “Active”. The inhibition [19] was “Active”, the Activity (HUVEC [20]) was “Active” and the Activity (HUVEC [21]) was “Active”. For the same molecule, the Activity (HUVEC [22]) was “Active”.
